Tested on: 885724-159-R-J1-PDC KRAS PDC multicell spheroid viability
Assay: Anticancer human tumor 885724-159-R-J1-PDC patient-derived pancreatic adenocarcinoma cell line growth inhibition [KRAS2]
Conditions: for IC50: curve of first compound; for viability, T/C: stronger effect = lower value; active = viability on the fitted dose curve at most 10% of control; inactive = the rest
Procedure, shortened: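 Combination screen of spheroid viability in tumor-cell co-cultures with endothelial (HUVEC) and mesenchymal stem cell stroma. Each agent was tested in half-log dilutions, topping at clinical Cmax or at 10 microM without a known Cmax.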

[1] = second compound 0.1 µM, first compound 0.0316 µM
[2] = second compound 0.1 µM, first compound 0.1 µM
[3] = second compound 0.1 µM, first compound 0.316 µM
[4] = second compound 0.1 µM, first compound 1 µM
[5] = second compound 0.1 µM, first compound 3.16 µM
[6] = second compound 0.1 µM, first compound 10 µM
[7] = second compound 0.316 µM, first compound 0.0316 µM
[8] = second compound 0.316 µM, first compound 0.1 µM
[9] = second compound 0.316 µM, first compound 0.316 µM
[10] = second compound 0.316 µM, first compound 1 µM
[11] = second compound 0.316 µM, first compound 3.16 µM
[12] = second compound 0.316 µM, first compound 10 µM
[13] = second compound 1 µM, first compound 0.0316 µM
[14] = second compound 1 µM, first compound 0.1 µM
[15] = second compound 1 µM, first compound 0.316 µM
[16] = second compound 1 µM, first compound 1 µM
[17] = second compound 1 µM, first compound 3.16 µM
[18] = second compound 1 µM, first compound 10 µM
[19] = second compound 3.16 µM, first compound 0.0316 µM
[20] = second compound 3.16 µM, first compound 0.1 µM
[21] = second compound 3.16 µM, first compound 0.316 µM
[22] = second compound 3.16 µM, first compound 1 µM
[23] = second compound 3.16 µM, first compound 3.16 µM
[24] = second compound 3.16 µM, first compound 10 µM
[25] = second compound 10 µM, first compound 0.0316 µM
[26] = second compound 10 µM, first compound 0.1 µM
[27] = second compound 10 µM, first compound 0.316 µM
[28] = second compound 10 µM, first compound 1 µM
[29] = second compound 10 µM, first compound 3.16 µM
[30] = second compound 10 µM, first compound 10 µM
[31] = second compound 0.1 µM, first compound 0.01 µM
[32] = second compound 0.316 µM, first compound 0.01 µM
[33] = second compound 1 µM, first compound 0.01 µM
[34] = second compound 3.16 µM, first compound 0.01 µM
[35] = second compound 10 µM, first compound 0.01 µM
[36] = second compound 0.1 µM, first compound 0.00316 µM
[37] = second compound 0.316 µM, first compound 0.00316 µM
[38] = second compound 1 µM, first compound 0.00316 µM
[39] = second compound 3.16 µM, first compound 0.00316 µM
[40] = second compound 10 µM, first compound 0.00316 µM
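Note: spheroids exposed to agents for 7 days before readout.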

CC(C)NCC(C(=O)N1CCN(c2ncnc3c2C(C)CC3O)CC1)c1ccc(Cl)cc1 (stereo not given) + COc1cc2nc(C)nc(NC(C)c3cc(N)cc(C(F)(F)F)c3)c2cc1OC1CCOC1
inactive: viability, T/C [1] 86.3% | viability, T/C [2] 77.1% | viability, T/C [3] 75.7% | viability, T/C [4] 71.6% | viability, T/C [5] 74.6% | viability, T/C [6] 56.8% | viability, T/C [7] 88.8% | viability, T/C [8] 87.2% | viability, T/C [9] 70.5% | viability, T/C [10] 70.3% | viability, T/C [11] 75.7% | viability, T/C [12] 57.7% | viability, T/C [13] 86.4% | viability, T/C [14] 77.5% | viability, T/C [15] 69.1% | viability, T/C [16] 70.8% | viability, T/C [17] 71.6% | viability, T/C [18] 56.4% | viability, T/C [19] 76.7% | viability, T/C [20] 72.3% | viability, T/C [21] 66% | viability, T/C [22] 71.3% | viability, T/C [23] 76.9% | viability, T/C [24] 45.8% | viability, T/C [25] 39.2% | viability, T/C [26] 37.5% | viability, T/C [27] 26.9% | viability, T/C [28] 20.8% | viability, T/C [29] 11.5%
> 10000 nM: IC50 (second compound 0.1 µM) | IC50 (second compound 0.316 µM) | IC50 (second compound 1 µM)
8310 nM: IC50 (second compound 3.16 µM)
active: viability, T/C [30] 6.18%
< 31.6 nM: IC50 (second compound 10 µM)

CC1(C)CCC(CN2CCN(c3ccc(C(=O)NS(=O)(=O)c4ccc(NCC5CCOCC5)c([N+](=O)[O-])c4)c(Oc4cnc5[nH]ccc5c4)c3)CC2)=C(c2ccc(Cl)cc2)C1 + COc1cc2nc(C)nc(NC(C)c3cc(N)cc(C(F)(F)F)c3)c2cc1OC1CCOC1
< 31.6 nM: IC50 (second compound 10 µM)
4310 nM: IC50 (second compound 3.16 µM)
7290 nM: IC50 (second compound 0.1 µM)
inactive: viability, T/C [1] 93.7% | viability, T/C [2] 91.3% | viability, T/C [3] 91.8% | viability, T/C [4] 88.3% | viability, T/C [5] 82.2% | viability, T/C [6] 37.6% | viability, T/C [7] 96.9% | viability, T/C [8] 88.4% | viability, T/C [9] 86% | viability, T/C [10] 92.7% | viability, T/C [11] 79.5% | viability, T/C [12] 35.7% | viability, T/C [13] 91.2% | viability, T/C [14] 88.3% | viability, T/C [15] 81.9% | viability, T/C [16] 83.1% | viability, T/C [17] 64.1% | viability, T/C [18] 28% | viability, T/C [19] 84.4% | viability, T/C [20] 82.8% | viability, T/C [21] 84.4% | viability, T/C [22] 71.7% | viability, T/C [23] 59.7% | viability, T/C [24] 26.4% | viability, T/C [25] 31.2% | viability, T/C [26] 35.5% | viability, T/C [27] 23.4% | viability, T/C [28] 27.7% | viability, T/C [29] 26.2% | viability, T/C [30] 8.47%
5010 nM: IC50 (second compound 1 µM)
6930 nM: IC50 (second compound 0.316 µM)

CC1COCCN1c1cc(-c2ccnn2C)c2ccnc(-c3ccn[nH]3)c2n1 (stereo not given) + COc1cc2nc(C)nc(NC(C)c3cc(N)cc(C(F)(F)F)c3)c2cc1OC1CCOC1
< 10 nM: IC50 (second compound 10 µM)
2720 nM: IC50 (second compound 0.1 µM)
inactive: viability, T/C [31] 99.4% | viability, T/C [1] 91.6% | viability, T/C [2] 71.5% | viability, T/C [3] 62.5% | viability, T/C [4] 49.1% | viability, T/C [5] 50.9% | viability, T/C [32] 101% | viability, T/C [7] 94.3% | viability, T/C [8] 70% | viability, T/C [9] 63% | viability, T/C [10] 52% | viability, T/C [11] 53.9% | viability, T/C [33] 111% | viability, T/C [13] 88.4% | viability, T/C [14] 73.5% | viability, T/C [15] 60.6% | viability, T/C [16] 56% | viability, T/C [17] 58.4% | viability, T/C [34] 97.3% | viability, T/C [19] 89.2% | viability, T/C [20] 71.3% | viability, T/C [21] 61.9% | viability, T/C [22] 59.2% | viability, T/C [23] 52.9% | viability, T/C [35] 46% | viability, T/C [25] 51.7% | viability, T/C [26] 49.4% | viability, T/C [27] 34.2% | viability, T/C [28] 41.9% | viability, T/C [29] 32.2%
> 3160 nM: IC50 (second compound 0.316 µM) | IC50 (second compound 1 µM) | IC50 (second compound 3.16 µM)

CCN1CCN(Cc2ccc(Nc3ncc(F)c(-c4cc(F)c5nc(C)n(C(C)C)c5c4)n3)nc2)CC1 + COc1cc2nc(C)nc(NC(C)c3cc(N)cc(C(F)(F)F)c3)c2cc1OC1CCOC1
> 1000 nM: IC50 (second compound 0.1 µM) | IC50 (second compound 0.316 µM) | IC50 (second compound 1 µM) | IC50 (second compound 3.16 µM)
inactive: viability, T/C [36] 88.8% | viability, T/C [31] 89.7% | viability, T/C [1] 84.2% | viability, T/C [2] 80.7% | viability, T/C [3] 80.7% | viability, T/C [4] 86.1% | viability, T/C [37] 96.3% | viability, T/C [32] 86.2% | viability, T/C [7] 79.9% | viability, T/C [8] 79% | viability, T/C [9] 75.2% | viability, T/C [10] 76.6% | viability, T/C [38] 90% | viability, T/C [33] 86.9% | viability, T/C [13] 78.6% | viability, T/C [14] 73.2% | viability, T/C [15] 72.4% | viability, T/C [16] 80.8% | viability, T/C [39] 80.3% | viability, T/C [34] 91.6% | viability, T/C [19] 76% | viability, T/C [20] 63% | viability, T/C [21] 71.5% | viability, T/C [22] 73.1% | viability, T/C [40] 38.2% | viability, T/C [35] 35.9% | viability, T/C [25] 28.3% | viability, T/C [26] 36.6% | viability, T/C [27] 17.6%
< 3.16 nM: IC50 (second compound 10 µM)
active: viability, T/C [28] 7.18%

CCNC(=O)CC1N=C(c2ccc(Cl)cc2)c2cc(OC)ccc2-n2c(C)nnc21 (stereo not given) + COc1cc2nc(C)nc(NC(C)c3cc(N)cc(C(F)(F)F)c3)c2cc1OC1CCOC1
inactive: viability, T/C [1] 99.4% | viability, T/C [2] 91.5% | viability, T/C [3] 75.2% | viability, T/C [4] 53.8% | viability, T/C [5] 50% | viability, T/C [6] 45.7% | viability, T/C [7] 101% | viability, T/C [8] 89.6% | viability, T/C [9] 76.4% | viability, T/C [10] 57% | viability, T/C [11] 51.7% | viability, T/C [12] 44.8% | viability, T/C [13] 95.9% | viability, T/C [14] 94.4% | viability, T/C [15] 72% | viability, T/C [16] 55.9% | viability, T/C [17] 49.1% | viability, T/C [18] 46.9% | viability, T/C [19] 94.6% | viability, T/C [20] 99.6% | viability, T/C [21] 69.1% | viability, T/C [22] 54.3% | viability, T/C [23] 47.8% | viability, T/C [24] 44.6% | viability, T/C [25] 34.8% | viability, T/C [26] 22.4% | viability, T/C [27] 16.5% | viability, T/C [28] 14.1% | viability, T/C [29] 20.1% | viability, T/C [30] 12.4%
952 nM: IC50 (second compound 3.16 µM)
2350 nM: IC50 (second compound 0.1 µM)
2490 nM: IC50 (second compound 1 µM)
3080 nM: IC50 (second compound 0.316 µM)
< 31.6 nM: IC50 (second compound 10 µM)

Cn1ncnc1[C@H]1c2n[nH]c(=O)c3cc(F)cc(c23)N[C@@H]1c1ccc(F)cc1 + COc1cc2nc(C)nc(NC(C)c3cc(N)cc(C(F)(F)F)c3)c2cc1OC1CCOC1
inactive: viability, T/C (second compound 0.1 µM, first compound 0.000316 µM) 104% | viability, T/C (second compound 0.1 µM, first compound 0.001 µM) 101% | viability, T/C [36] 102% | viability, T/C [31] 96.2% | viability, T/C [1] 92.1% | viability, T/C [2] 93.4% | viability, T/C (second compound 0.316 µM, first compound 0.000316 µM) 96.3% | viability, T/C (second compound 0.316 µM, first compound 0.001 µM) 102% | viability, T/C [37] 98.6% | viability, T/C [32] 98.3% | viability, T/C [7] 94.5% | viability, T/C [8] 91.3% | viability, T/C (second compound 1 µM, first compound 0.000316 µM) 98.2% | viability, T/C (second compound 1 µM, first compound 0.001 µM) 96.5% | viability, T/C [38] 92.4% | viability, T/C [33] 94.3% | viability, T/C [13] 102% | viability, T/C [14] 85.5% | viability, T/C (second compound 3.16 µM, first compound 0.000316 µM) 91.8% | viability, T/C (second compound 3.16 µM, first compound 0.001 µM) 97.9% | viability, T/C [39] 90.5% | viability, T/C [34] 88.5% | viability, T/C [19] 94.3% | viability, T/C [20] 83.1% | viability, T/C (second compound 10 µM, first compound 0.000316 µM) 42.1% | viability, T/C (second compound 10 µM, first compound 0.001 µM) 44.8% | viability, T/C [40] 20.7% | viability, T/C [35] 48.3% | viability, T/C [25] 34.2% | viability, T/C [26] 30.4%
< 0.316 nM: IC50 (second compound 10 µM)
> 100 nM: IC50 (second compound 0.1 µM) | IC50 (second compound 0.316 µM) | IC50 (second compound 1 µM) | IC50 (second compound 3.16 µM)

— PubChem BioAssay AID1963861 (Molecular Pharmacology Branch, DTP, NCI, 2024)
